Consider three compounds from patent US6914057B1, “Inhibitor of cataract formation” (The Research Foundation of State University of New York, priority 1998, dated 2005).

In data set [1] the test system is Type II ZDF/GMI diabetic rats. As to the kind of experiment: Development of cataracts in Type II ZDF/GMI diabetic rats treated with tetracycline analogues. The format is in vivo, rat. As to conditions: for percentage of Type II ZDF/GMI diabetic rats that developed cataracts: FIG. 1, treated diabetic rats, oral dose of 15 mg/kg. From the text:
Diabetics develop posterior subcapsular cataracts, characterized by a central opacity in the nucleus and cortex. […] In the current study, CMT-8 administration to the Type II diabetic rats reduced the incidence of cataract development by […] at five months. In fact, this therapeutic effect may have been underestimated since it was an unexpected finding and, therefore, was not documented at the earlier time points. The mechanisms by which Type II (and Type I) diabetes causes the development of these cataracts is not yet understood.
Specifically, approximately 60% of untreated Type II ZDF/GMI diabetic rats developed cataracts whereas approximately 42% of Type II ZDF/GMI diabetic rats treated with CMT-8 developed cataracts.
In particular, approximately 60% of Type II ZDF/GMI diabetic rats treated with doxycycline developed cataracts and approximately 70% of Type II ZDF/GMI diabetic rats treated with CMT-3 developed cataracts.
It is believed that the lack of efficacy for doxycycline and CMT-3 was due to the serum concentration achieved. […] The peak serum concentration for doxycycline was determined to be 0.9 μg/ml and the peak serum concentration for CMT-3 was determined to be 4.6 μg/ml. The peak serum concentration, though, for CMT-8 was determined to be 15 μg/ml. Liu et al., The Lipophilicity and Pharmacokdnetics of Different Chemically-Modified Tetracyclines (CMTs) In Vivo, Current Medicinal Chemistry, submitted for publication in September 1999. Clearly, administration of higher oral doses of CMT-3 and doxycycline would be needed to achieve serum concentrations similar to CMT-8.
FIGS. 2 and 3 provide a comparison of healthy untreated rats with untreated Type II ZDF/GMI diabetic rats and Type II ZDF/GMI diabetic rats treated with doxycycline and CMT-8.

For data set [2] the following is noted: rat; oral dose of 15 mg/kg; cited from earlier work.

SMILES strings stand for the structures.

`NC(=O)C1=C(O)C[C@@H]2C[C@@H]3Cc4cccc(O)c4C(=O)C3=C(O)[C@]2(O)C1=O` [CMT-3, 6-demethyl-6-deoxy-4-dedimethylaminotetracycline]: in data set [1], the “percentage of Type II ZDF/GMI diabetic rats that developed cataracts” value is “approximately 70%”. In data set [2], the peak serum concentration was 4.6 µg/mL.
As for `CC1c2cccc(O)c2C(O)=C2C(=O)C3(O)C(O)=C(C(N)=O)C(=O)CC3C(O)C21` (stereo not drawn) [CMT-8, 5-hydroxy-6-α-deoxy-4-dedimethylaminotetracycline], in data set [1], the “percentage of Type II ZDF/GMI diabetic rats that developed cataracts” value was “approximately 42%”. Moreover, the “cataract development in photographs compared with non-diabetic control rats (in words)” value in data set [1] (FIGS. 2 and 3, treated Type II ZDF/GMI diabetic rats) is recorded as “Cataracts do not appear to have developed”. The “reduction of the incidence of cataract development” value in data set [1] (Type II diabetic rats, at five months) was determined as 37%. Moreover, the “prevention of cataract development (in words)” value in data set [1] (ZDF/Gmi-fa Type II diabetic rats, at five months) is given as “appeared to prevent the development of these cataracts”. For the same compound, in data set [2], the peak serum concentration was 15 µg/mL.
In the case of `C[C@H]1c2cccc(O)c2C(=O)C2=C(O)[C@]3(O)C(=O)C(C(N)=O)=C(O)[C@@H](N(C)C)[C@@H]3[C@@H](O)[C@@H]21` [doxycycline, reference compound], in data set [1], the “percentage of Type II ZDF/GMI diabetic rats that developed cataracts” value was “approximately 60%”. In data set [2], the peak serum concentration was 0.9 µg/mL.
